# Measured values taken from paper PMC9246869, “Allosteric inhibition of PPM1D serine/threonine phosphatase via an altered conformational state” (Nature Communications, 2022).
# Values joined by “and” are separate entries in the source; they are usually repeats but may differ in a detail not shown here. Equal values may be shown once.
# Legend:
# [1] = molecular target: T1, PPM1D1–420 (Homo sapiens, UniProt O15297); experiment: p38 MAPK enzymatic assay (LC/MS, dephosphorylation of T180); assay type: biochemical; conditions: for P38 Assay, signal relative to 0 nM GSK (=100): PPM1D1-420, individual runs, listed as GSK
# T1 construct: PPM1D1–420 was PCR-amplified from the synthesized gene with BsaI sites; His(6)-SUMO (N, cleaved yes); made in house; host or cells: E. coli BL21 (DE3)
# T1 sequence (O15297 1-420): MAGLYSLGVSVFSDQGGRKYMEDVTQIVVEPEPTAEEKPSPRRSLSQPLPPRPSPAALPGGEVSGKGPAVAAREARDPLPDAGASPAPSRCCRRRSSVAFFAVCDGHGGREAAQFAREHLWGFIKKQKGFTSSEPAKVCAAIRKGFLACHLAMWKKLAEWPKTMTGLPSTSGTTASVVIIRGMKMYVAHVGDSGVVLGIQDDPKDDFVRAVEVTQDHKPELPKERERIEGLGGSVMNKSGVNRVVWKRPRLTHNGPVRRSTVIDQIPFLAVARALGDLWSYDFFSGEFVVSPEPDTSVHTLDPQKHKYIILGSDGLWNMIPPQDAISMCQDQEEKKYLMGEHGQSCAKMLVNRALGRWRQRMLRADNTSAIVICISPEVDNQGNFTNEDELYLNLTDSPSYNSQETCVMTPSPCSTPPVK
# Procedure: (§1) To generate the double phosphorylated form of p38 MAPK for the LC/MS enzymatic PPM1D assay, 20 µM p38 MAPK was incubated with 100 nM MKK6 in 50 mM HEPES pH 7.4, 10 mM ATP, 40 mM MgCl2, and 100 µM TCEP at RT for 2 h. The reaction mixture was diluted 2-fold with 20 mM HEPES pH 7.4, 300 mM NaCl, 100 µM TCEP, and 1 mM MgCl2 and passed over a Superdex 200 26/600 column equilibrated with 20 mM HEPES pH 7.4, 150 mM NaCl, 100 µM TCEP, and 1 mM MgCl2 to remove excess ATP and MKK6 from the phosphorylated p38 MAPK (p38PP) protein. The protein was concentrated and stored in aliquots for single time usage at −80 °C.
# (§2) The enzymatic activity of the PPM1D constructs was measured by quantifying the dephosphorylation of the substrate protein p38PP by LC/MS. Assays were run in 384-well plates (Axygen; #P-384-120SQ-C) in a final volume of 80 µL per well. The buffer consisted of 20 mM HEPES, 20 mM NaCl, 20 mM MgCl2 and 0.1 mM TCEP, at a pH of 7.5. The reaction was initiated by addition of the p38PP substrate to a solution containing 10 nM PPM1D to a final concentration of 300 nM for p38PP. The plate was then incubated at room temperature and the reaction quenched after 15 min increments with formic acid to a final concentration of 6% (v/v) up to 120 min. For IC50 measurements, the GSK2830371 compound was pre-incubated with the PPM1D constructs in a 2% DMSO-containing buffer for 10 min prior to the addition of the substrate and the reactions were quenched after 2 h. In both experiments, BSA was added to a final concentration of 0.2 µM during the quench step as a carrier protein and injection control for the LC/MS. The plate was then sealed and spun down at 1500 × g for 1 min prior to LC/MS analysis. Plates were analyzed within the same day of the quench step.
# (§3) Substrate and product detection was achieved by multiple-reaction monitoring (MRM) using a Waters Acquity UPLC chromatography system connected to an Xevo TQ-XS mass spectrometer (Waters, Milford, MA). Source parameters were set as follows: polarity ES+, capillary 2.0 kV, cone voltage, 50 V; collision energy, 5 V; cone gas flow, 200 L/h; collision gas flow, 0.16 mL/min; source temperature, 150 °C; desolvation temperature, 500 °C; and desolvation gas flow, 800 L/h. Analytes were separated using an Agilent PLRP-S Reversed-Phase column (5 µm; 2.1 × 50 mm, 300 Å Agilent Technologies, Santa Clara, CA) at 60 °C. Sample storage temperature was set to 15 °C. Mobile phases consisted of 0.1% (v/v) formic acid (Millipore EMSURE) in LC/MS grade water (JTBaker) and 0.1% v/v formic acid in acetonitrile (Honeywell). Initial column conditions were set to […]. Proteins were eluted using a 1.5 min gradient of 5–98% acetonitrile at 0.4 ml/min. MassLynx and TargetLynx software (Waters, version 4.2) were used for sample acquisition and data analysis, respectively. Analytes were quantified by integration of peak areas under the curve using the transitions 941.10 to 941.05 m/z for P38PP (substrate) and 939.10 to 939.09 m/z for P38P (product). Areas were normalized for instrumental variation by dividing by the BSA peak area (1209.23 to 1209.2 m/z transition) measured in the same well.
# [2] = molecular target: T2, PPM1DΔhinge (Homo sapiens, UniProt O15297, DEL155-163/G166S/M164G/T165G); experiment: as above; assay type: biochemical; conditions: for P38 Assay, signal relative to 0 nM GSK (=100): PPM1DΔHinge, individual runs, listed as GSK
# T2 construct: PPM1D1–154-GGS-167–420 (PPM1D∆hinge); His(6)-SUMO (N, cleaved yes); made in house; host or cells: E. coli BL21 (DE3)
# T2 sequence (O15297 with tags, fused parts or gaps DEL155-163/M164G/T165G/G166S): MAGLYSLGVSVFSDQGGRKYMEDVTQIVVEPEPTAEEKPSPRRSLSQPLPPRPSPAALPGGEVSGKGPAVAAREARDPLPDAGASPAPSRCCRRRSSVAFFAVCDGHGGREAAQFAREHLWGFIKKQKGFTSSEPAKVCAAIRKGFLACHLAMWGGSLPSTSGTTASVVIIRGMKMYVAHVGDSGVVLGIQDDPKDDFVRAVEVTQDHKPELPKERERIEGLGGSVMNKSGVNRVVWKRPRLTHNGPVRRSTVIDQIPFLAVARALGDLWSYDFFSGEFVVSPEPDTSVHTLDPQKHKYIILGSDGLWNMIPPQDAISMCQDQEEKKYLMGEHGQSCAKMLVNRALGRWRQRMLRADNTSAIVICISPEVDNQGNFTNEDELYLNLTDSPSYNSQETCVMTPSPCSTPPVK
# Procedure: as §1, §2, §3
smiles,measurement,setting,value
Cc1ncc(Cl)cc1NCc1ccc(C(=O)N[C@@H](CC2CCCC2)C(=O)NC2CC2)s1 [GSK2830371],IC50,"[1]; PPM1D1–420, full length p38 MAPK substrate, LC/MS",~6 nM
same,"P38 Assay, signal relative to 0 nM GSK (=100)",[1]; [GSK] 0.49 nM,93.1001 and 100 and 88.922
same,"P38 Assay, signal relative to 0 nM GSK (=100)",[1]; [GSK] 0.98 nM,86.1215 and 81.7339 and 63.3381
same,"P38 Assay, signal relative to 0 nM GSK (=100)",[1]; [GSK] 1.95 nM,86.7639 and 71.6152 and 63.7723
same,"P38 Assay, signal relative to 0 nM GSK (=100)",[1]; [GSK] 3.9 nM,51.5439 and 51.2694 and 46.219
same,"P38 Assay, signal relative to 0 nM GSK (=100)",[1]; [GSK] 7.8 nM,29.2083 and 28.1523 and 24.0173
same,"P38 Assay, signal relative to 0 nM GSK (=100)",[1]; [GSK] 15.6 nM,16.4584 and 13.8278 and 11.5309
same,"P38 Assay, signal relative to 0 nM GSK (=100)",[1]; [GSK] 31.2 nM,11.2856 and 7.234 and 5.456
same,"P38 Assay, signal relative to 0 nM GSK (=100)",[1]; [GSK] 62.5 nM,6.81 and 5.822 and 3.842
same,"P38 Assay, signal relative to 0 nM GSK (=100)",[1]; [GSK] 125 nM,6.3041 and 6.187 and 2.5614
same,"P38 Assay, signal relative to 0 nM GSK (=100)",[1]; [GSK] 250 nM,4.442 and 3.236 and 2.029
same,"P38 Assay, signal relative to 0 nM GSK (=100)",[1]; [GSK] 500 nM,3.225 and 4.879 and 3.8956
same,increase of IC50 in p38 MAPK assay upon hinge deletion,[2]; PPM1DΔhinge versus PPM1D1–420,100 fold
same,"P38 Assay, signal relative to 0 nM GSK (=100)",[2]; [GSK] 1.953 nM,100.358 and 104.09 and 99.8488
same,"P38 Assay, signal relative to 0 nM GSK (=100)",[2]; [GSK] 3.906 nM,98.4717 and 98.7741 and 94.5709
same,"P38 Assay, signal relative to 0 nM GSK (=100)",[2]; [GSK] 7.813 nM,97.8741 and 98.6995 and 87.7716
same,"P38 Assay, signal relative to 0 nM GSK (=100)",[2]; [GSK] 15.625 nM,91.5216 and 88.9322 and 63.2104
same,"P38 Assay, signal relative to 0 nM GSK (=100)",[2]; [GSK] 31.25 nM,84.0592 and 89.4059 and 56.2735
same,"P38 Assay, signal relative to 0 nM GSK (=100)",[2]; [GSK] 62.5 nM,71.608 and 76.249 and 61.6546
same,"P38 Assay, signal relative to 0 nM GSK (=100)",[2]; [GSK] 125 nM,62.6262 and 54.2715 and 52.5307
same,"P38 Assay, signal relative to 0 nM GSK (=100)",[2]; [GSK] 250 nM,49.6072 and 48.4313 and 45.7898
same,"P38 Assay, signal relative to 0 nM GSK (=100)",[2]; [GSK] 500 nM,38.0355 and 40.9669 and 36.3652
same,"P38 Assay, signal relative to 0 nM GSK (=100)",[2]; [GSK] 1000 nM,32.2867 and 33.3807 and 27.8112
